≈ marks a conversion by molar mass, not a printed value. Like-named read-outs stand apart in the source and are kept apart here.
Legend:
[1] = system: Clone A human colon cancer cells; test: In vitro growth inhibition of Clone A cells (MTT, 72 hr); format: cell-based; details: read-out: Clone A IC50
Description: (§1) The reagents for tissue culture were purchased from GIBCO (Grand Island, N.Y.). 5-Dimethylthiazol-2-yl)-2,5-diphenyl tetrazolium bromide (MTT) was purchased from Sigma Chemical Company (St. Louis, Mo.). All agents were prepared as 2 mg/ml stock solutions in DMSO. MTT was prepared as a 1 mg/ml stock solution in Dulbecco's phosphate buffered saline (PBS). All stocks were stored frozen in the dark at -20° C.
(§2) Clone A human colon cancer cells were isolated from the heterogeneous DLD-1 colon tumor line and maintained as previously described (Dexter, D. L.; Barbosa, J. A.; Calabresi, P. Cancer Research 1979, 39, 1020; Dexter, D. L.; Spremulli, E. M.; Fligiel, A.; Barbosa, J. A.; Vogel, R.; Van Vorhees, A.; Calabresi, P. Am. J. Med. 1981, 71, 949.). Murine leukemia L1210 cells were maintained in RPMI-L medium as described (Chen, S.-F.; Ruben, R. L.; Dexter, D. L. Cancer Research 1986, 46, 5014.). All cell lines were incubated at 37° C. in a humidified atmosphere of 5% CO2 -95% air.
(§3) Exponentially growing L1210 cells (1×10^3), or Clone A cells (8×10^2) in 0.1 ml medium were seeded in a 96-well microtiter plate on day 0. On day one, 0.1 ml aliquots of medium containing graded concentrations of test compounds were added to the cell plates. After incubation at 37° C. in a humidified incubator for 72 hr, the plates containing L1210 cells were centrifuged briefly and 100 μl of the growth medium was removed. Cell cultures were incubated with 50 μl of MTT for 4 h at 37° C. (12). The resulting purple formazan precipitate was solubilized with 200 μl of 0.04 N HCl in isopropyl alcohol. Absorbance was read in a Titertek Multiskan MCC scanning well spectrophotometer (Flow Laboratories) at a test wavelength of 570 nm and a reference wavelength of 630 nm. The absorbances were stored on a floppy disk on an IBM-XT and uploaded onto a VAX computer. IC50 values were determined by a computer program that fit the data to the following equation:
(§4) Y=((Am -Ao)/(1+(X/IC50)^n))+Ao
(§5) where Am =absorbance of the control cells; Ao =absorbance of the cells in the presence of highest compound concentration; Y=observed absorbance; X=compound concentration; IC50 =dose of compound that inhibits the number of population doublings of cells to one half that of the number of population doublings of the control cells; and n equals the slope of the straight portion of the curve.
(§6) The values reported in the table are from at least one experiment performed in eight replicates. If more than one experiment was performed, the number reported is the average of all the trials

[2] = system: Murine leukemia L1210 cells; test: In vitro growth inhibition of L1210 cells (MTT, 72 hr); format: cell-based; details: Mus musculus, read-out: L1210 IC50
Description: as §1, §2, §3, §4, §5, §6

| SMILES | solubility (Solubility in water) | IC50 ([1]; Clone A cells, 72 hr, MTT) | IC50 ([2]; L1210 cells, 72 hr, MTT) | IC50 ([1]; 72 h) | IC50 ([2]; L1210, 72 h) |
| --- | --- | --- | --- | --- | --- |
| CS(=O)(=O)O.CS(=O)(=O)O.CS(=O)(=O)O.O=C1c2cccc3c2c(cc2ccncc23)C(=O)N1CCCCNCCCN1C(=O)c2cccc3c2c(cc2ccncc23)C1=O [Example 14, 4-[3-(6-Azaphenanthrene-1,10-dicarboximido)propylamino]-1-(6-azaphenanthrene-1,10-dicarboximido) butane Trihydromethanesulfonate] | 900 µg/mL | 0.003 µg/mL | 0.008 µg/mL | – | – |
| CCc1ccc2cc3c4c(cccc4c2c1)C(=O)N(CCCCNCCCN1C(=O)c2cccc4c2c(cc2ccc(CC)cc24)C1=O)C3=O.CS(=O)(=O)O [Example 47, 4-[3-(6-Ethylphenanthrene-1, 10-dicarboximido)propylamino]-1-(6-ethylphenanthrene-1, 10-dicarboximido)butane Hydromethanesulfonate] | 150 µg/mL | – | – | 0.763 µg/mL | 0.378 µg/mL |
| CS(=O)(=O)O.Cc1nc2cc3c4c(cccc4c2s1)C(=O)N(CCCCNCCCN1C(=O)c2cccc4c2c(cc2nc(C)sc24)C1=O)C3=O [Example 82, 4-[3-(2-Methylnaphtho[2,1-d]thiazole-5,6-dicarboximido)propylamino]-1-(2-methylnaphtho[2,1-d]thiazole-5,6-dicarboximido)butane Hydromethanesulfonate] | 4500 µg/mL | 0.068 µg/mL | 0.082 µg/mL | – | – |
| CC[C@H](CNCCNC[C@@H](CC)N1C(=O)c2cc([N+](=O)[O-])cc3c2c(cc2cc(C)cnc23)C1=O)N1C(=O)c2cc([N+](=O)[O-])cc3c2c(cc2cc(C)cnc23)C1=O [Example 24] | 150 µg/mL (≈ 192 µM) | 0.022 µg/mL (≈ 0.0281 µM) | 0.13 µg/mL (≈ 0.166 µM) | – | – |
| O=C1c2cccc3cc([N+](=O)[O-])cc(c23)C(=O)N1CCCCNCCCN1C(=O)c2cccc3c2c(cc2cccnc23)C1=O [Example 124] | 290 µg/mL (≈ 482 µM) | – | 0.011 µg/mL (≈ 0.0183 µM) | – | – |
| CS(=O)(=O)O.CS(=O)(=O)O.CS(=O)(=O)O.Nc1cc2c3c(cc4cccnc4c3c1)C(=O)N(CCCCNCCCN1C(=O)c3cc(N)cc4c3c(cc3cccnc34)C1=O)C2=O [Example 9, 4-[3-(3-Amino-5-azaphenanthrene-1,10-dicarboximido)propylamino]-1-(3-amino-5-azaphenanthrene-1, 10-dicarboximido)butane Trihydromethanesulfonate] | 11000 µg/mL | 0.166 µg/mL | 0.182 µg/mL | – | – |
| C[C@H](CNC[C@@H](C)N1C(=O)c2cc([N+](=O)[O-])cc3c2c(cc2cccnc23)C1=O)NC[C@@H](C)N1C(=O)c2cc([N+](=O)[O-])cc3c2c(cc2cccnc23)C1=O [Example 21] | 7700 µg/mL (≈ 10400 µM) | 0.005 µg/mL (≈ 0.00675 µM) | 0.042 µg/mL (≈ 0.0567 µM) | – | – |
| CS(=O)(=O)O.Cc1ccc2c(C)c3c4c(cccc4c2c1)C(=O)N(CCCCNCCCN1C(=O)c2cccc4c2c(c(C)c2ccc(C)cc24)C1=O)C3=O [Example 46, 4-[3-(6,9-Dimethylphenanthrene-1,10-dicarboximido)propylamino]-1-(6,9-dimethylphenanthrene-1, 10-dicarboximido)butane Hydromethanesulfonate] | 40 µg/mL | – | – | 0.958 µg/mL | 0.414 µg/mL |
| CS(=O)(=O)O.Cc1c2c3c(cccc3c3ccccc13)C(=O)N(CCCCNCCCN1C(=O)c3cccc4c3c(c(C)c3ccccc34)C1=O)C2=O [Example 43, 4-[3-(9-Methylphenanthrene-1,10-dicarboximido)propylamino]-1-(9-methylphenanthrene-1, 10-dicarboximido)butane Hydromethanesulfonate] | 40 µg/mL | – | – | 0.4 µg/mL | 0.357 µg/mL |
| CS(=O)(=O)O.CS(=O)(=O)O.CS(=O)(=O)O.Cc1nc2cc3c4c(cccc4c2[nH]1)C(=O)N(CCCCNCCCN1C(=O)c2cccc4c2c(cc2nc(C)[nH]c24)C1=O)C3=O [Example 81, 4-[3-(2-Methyl-1H-naphth[1,2-d]imidazole-5,6-dicarboximido)propylamino]-1-(2-methyl-1H-naphth[1,2-d]imidazole-5,6-dicarboximido)butane Trihydromethanesulfonate] | 7600 µg/mL | 22.2 µg/mL | 0.201 µg/mL | – | – |
| O=C1c2cccc3c2c(cc2cnccc23)C(=O)N1CCCCNCCCN1C(=O)c2cccc3c2c(cc2cnccc23)C1=O [Example 15, 4-[3-(7-Azaphenanthrene-1,10-dicarboximido)propylamino]-1-(7-azaphenanthrene-1,10dicarboximido) butane 2.5-Hydromethanesulfonate] | 810 µg/mL (≈ 1330 µM) | 0.002 µg/mL (≈ 0.00329 µM) | 0.002 µg/mL (≈ 0.00329 µM) | – | – |
| C[C@H](CNCCNC[C@@H](C)N1C(=O)c2cc([N+](=O)[O-])cc3c2c(cc2cccnc23)C1=O)N1C(=O)c2cccc3cc([N+](=O)[O-])cc(c23)C1=O [Example 123] | 5770 µg/mL (≈ 8540 µM) | – | 0.013 µg/mL (≈ 0.0192 µM) | – | – |
| CS(=O)(=O)O.O=C1c2cccc3c2c(cc2cc([N+](=O)[O-])cnc23)C(=O)N1CCCCNCCCN1C(=O)c2cccc3c2c(cc2cc([N+](=O)[O-])cnc23)C1=O [Example 11, 4-[3-(7-Nitro-5-azaphenanthrene-1,10dicarboximido)propylamino]-1-(7-nitro-5-azaphenanthrene-1, 10-dicarboximido)butane Hydromethanesulfonate] | – | – | – | 0.543 µg/mL | 0.171 µg/mL |
| CS(=O)(=O)O.Cc1cccc2c1cc1c3c(cccc32)C(=O)N(CCCCNCCCN2C(=O)c3cccc4c3c(cc3c(C)cccc34)C2=O)C1=O [Example 42, 4-[3-(8-Methylphenanthrene-1,10-dicarboximido)propylamino]-1-(8-methylphenanthrene-1, 10-dicarboximido)butane Hydromethanesulfonate] | 60 µg/mL | – | – | 0.271 µg/mL | 0.137 µg/mL |
| CS(=O)(=O)O.CS(=O)(=O)O.C[C@@H](CNCCNC[C@H](C)N1C(=O)c2cccc3c2c(cc2ccc([N+](=O)[O-])cc23)C1=O)N1C(=O)c2cccc3c2c(cc2ccc([N+](=O)[O-])cc23)C1=O [Example 52, (S,S)-1,2-bis-[2-(6-Nitrophenanthrene-1,10-dicarboximido)propylamino]ethane Dihydromethanesulfonate] | – | – | – | 0.044 µg/mL | 0.082 µg/mL |
| CS(=O)(=O)O.O=C1c2cccc3c2c(cc2ccc(F)cc23)C(=O)N1CCCCNCCCN1C(=O)c2cccc3c2c(cc2ccc(F)cc23)C1=O [Example 56, 4-[3-(6-Fluorophenanthrene-1,10-dicarboximido)propylamino]-1-(6-fluorophenanthrene-1,10-dicarboximido)butane Hydromethanesulfonate] | 40 µg/mL | – | – | 0.222 µg/mL | 0.365 µg/mL |
| CS(=O)(=O)O.Cc1cnc2c(c1)cc1c3c(cc([N+](=O)[O-])cc32)C(=O)N(CCCCNCCCN2C(=O)c3cc([N+](=O)[O-])cc4c3c(cc3cc(C)cnc34)C2=O)C1=O [Example 12, 4-[3-(3-Nitro-7-methyl-5-azaphenanthrene-1, 10-dicarboximido)propylamino]-1-(3-nitro-7-methyl-5-azaphenanthrene-1, 10-dicarboximido)butane Hydromethanesulfonate] | 50 µg/mL | – | – | 0.009 µg/mL | 0.027 µg/mL |
| CS(=O)(=O)O.Cc1cnc2c(c1)cc1c3c(cccc32)C(=O)N(CCCCNCCCN2C(=O)c3cccc4c3c(cc3cc(C)cnc34)C2=O)C1=O [Example 10, 4-[3-(7-Methyl-5-azaphenanthrene-1,10-dicarboximido)propylamino]-1-(7-methyl-5-azaphenanthrene-1, 10-dicarboximido)butane Hydromethanesulfonate] | – | 0.346 µg/mL | 0.588 µg/mL | – | – |
| CS(=O)(=O)O.O=C1c2cccc3c2c(cc2ccoc23)C(=O)N1CCCCNCCCN1C(=O)c2cccc3c2c(cc2ccoc23)C1=O [Example 80, 4-[3-(Naphtho[1,2-b]furan-5,6-dicarboximido)propylamino]-1-(naphtho[1,2-b]furan-5,6-dicarboximido)butane Hydromethanesulfonate] | 420 µg/mL | 0.635 µg/mL | 0.389 µg/mL | – | – |
